# Reference: patent publication US20120184542A1, “PYRIDO PYRIMIDINES” (priority 2011, published 2012)
# Read-outs that look alike come from different tables or passages of the source.
# Columns and labels:
# Human DYRK1B = molecular target: T1, Human DYRK1B (Homo sapiens, UniProt Q9Y463); test: DYRK1B Kinase TR-FRET (IMAP-Tb) Assay; format: biochemical; conditions: for IC50: TR-FRET (IMAP-Tb), ATP 70 μM, 37° C. 60 minutes
# T1 construct: purchased Invitrogen PR8350B (former PV4649)
# [1] = test system: SW620 human colon cancer cells; test: SW620 Cell Viability Assay; format: cell-based; conditions: Homo sapiens, SW-620, 96 h, read-out: Cellular EC50 (μM) SW620
# Procedure: Some cells (S—) were allowed to attach for 24 hrs, serum starved for 48 hrs, and then followed with drug treatments Test Compound Solutions were Prepared in Regular Corresponding Media Supplemented with Serum 2. […] Viability Assay: This assay was performed as follows: • Transfer 50 μL of test compound solution per well from the test compound plate onto the cell plate prepared in Step #1. • Mix the plate with treated cells by pipetting up and down three times with 200 μL multi-channel pipette. • Incubate the cells in 5% CO2 incubator @ 37° C. for 4 days. • Run the CellTiter-Glo™ Luminescent Cell Viability Assay.
# Human DYRK1A = molecular target: T2, Human DYRK1A (Homo sapiens, UniProt Q13627); test: DYRK1A Kinase TR-FRET (IMAP-Tb) Assay; format: biochemical; conditions: TR-FRET (IMAP-Tb); ATP 70 μM; 37° C. 60 minutes; read-out: Enzyme IC50 (μM) DYRK1A
# T2 construct: purchased Invitrogen PV3997
# Text: The kinase TR-FRET (IMAP-Tb) assay uses a fluorescence labeled substrate peptide in the kinase reaction. Upon phosphorylation by the kinase, phosphopeptide is produced, which will be detected by the binding solution provided in IMAP TR-FRET binding kit. After the completion of the kinase reaction, the reaction will be stopped by adding the binding solution containing terbium tracer. This tracer is immobilized on the surface of the IMAP beads, which also contain metal ions on the beads that bind to the phospho-groups of the products. Thus the phosphorylated product of the reaction can enter into close proximity to the tracer, producing resonance energy transfer. Due to the long lifetime of terbium (Tb) fluorescence the detection can be run in time resolved mode, which virtually eliminates fluorescence interference from assay components or compounds.
# The TR-FRET signal measurement from this assay, given as an IC50 measurement, is a measure of a test compound's ability to interfere with the phosphorylation of the peptide substrate, that is it inhibits the phosphorylation of the substrate peptide by DYRK1A, and is thus a measure of the test compound's ability to inhibit the activity of DYRK1A.
# • 1. Human DYRK1A: from Invitrogen. Part #PV3997 • 2. Substrate Peptide: […] • 3. IMAP TR-FRET IPP Explorer Kit: from Molecular Devices. Part #R8157 • 4. Kinase Assay Buffer (KAB): 10 mM HEPES pH 7.0, 50 mM NaCl, 5 mM MgCl2, 1 mM DTT, 1 mM NaVO4, 200 μg/mL BSA (0.02%) • 5. Assay Plate: Remp polypropylene clear 384-well microplate. […] Detection Plate: Costa black 384-well microplate.
# • 1. Transfer 1.5 μL of 20× compound solution to each well of an assay plate. • 2. Add to each well 22.5 μL of KAB Buffer. • 3. Add to each well 3 μL of the solution of DYRK1A and ATP. […] Add to each well 3 μL of the substrate peptide. The assay concentration is 1.0 μM • 5. Incubate the assay plates at 37° C. for 60 minutes. • 6. Add 18 μL of Detection Solution (1:800 diluted Progress bead stock, 1:400 diluted Tb stock, 80% Buffer A, and 20% Buffer B) into each well of detection plates. • 7. Transfer 6 μL of assay solution from the assay plate to the detection plate. • 8. Shake detection plates for 30 minutes. • 9. Read plates in Envision with wavelength set at excitation 340 nm for Tb, emission 490 nm, and […].
# [2] = read-out: Enzyme IC50 (μM) DYRK1B
# T1 sequence (Q9Y463 whole entry): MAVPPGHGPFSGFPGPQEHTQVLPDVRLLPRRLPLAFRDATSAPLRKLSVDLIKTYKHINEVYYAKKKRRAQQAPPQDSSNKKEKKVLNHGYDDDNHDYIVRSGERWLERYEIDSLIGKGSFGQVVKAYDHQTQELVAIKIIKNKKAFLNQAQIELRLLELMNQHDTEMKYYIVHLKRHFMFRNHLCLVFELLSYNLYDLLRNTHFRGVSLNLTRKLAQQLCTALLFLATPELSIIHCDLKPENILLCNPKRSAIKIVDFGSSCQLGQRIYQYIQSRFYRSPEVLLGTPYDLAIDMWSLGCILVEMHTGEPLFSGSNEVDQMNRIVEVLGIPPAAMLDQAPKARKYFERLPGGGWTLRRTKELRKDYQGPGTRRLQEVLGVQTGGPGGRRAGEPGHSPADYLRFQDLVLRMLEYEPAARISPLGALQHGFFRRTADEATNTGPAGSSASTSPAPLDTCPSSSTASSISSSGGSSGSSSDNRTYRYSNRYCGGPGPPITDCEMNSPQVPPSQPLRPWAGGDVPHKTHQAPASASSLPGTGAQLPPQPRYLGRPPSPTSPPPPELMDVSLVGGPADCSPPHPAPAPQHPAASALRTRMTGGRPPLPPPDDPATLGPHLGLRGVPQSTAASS
SMILES,IC50 (Human DYRK1B; Enzyme IC50 (μM) DYRK1B),EC50 [1],IC50 (Human DYRK1B; [2]),IC50 (Human DYRK1A),inhibition at 10 µM (Human DYRK1B; read-out: % inhibition of DYRK1B at 10 μM test compound concentration)
"COC(=O)c1ccc(C)c(NC(=O)c2cc3cnc(OC)nc3[nH]c2=O)c1 [Example 19, 3-[(2-Methoxy-7-oxo-7,8-dihydro-pyrido[2,3-d]pyrimidine-6-carbonyl)-amino]-4-methyl-benzoic acid methyl ester]",0.252 µM,92.5 µM,–,–,–
"COC(=O)c1ccc(Cl)c(NC(=O)c2cc3cnc(OC)nc3[nH]c2=O)c1 [Example 21, 4-Chloro-3-[(2-methoxy-7-oxo-7,8-dihydro-pyrido[2,3-d]pyrimidine-6-carbonyl)-amino]-benzoic acid methyl ester]",0.135 µM,3.34 µM,–,–,–
"COc1ncc2cc(C(=O)Nc3cc(C(=O)NCc4ccccc4)ccc3Cl)c(=O)[nH]c2n1 [Example 31, 2-Methoxy-7-oxo-7,8-dihydro-pyrido[2,3-d]pyrimidine-6-carboxylic acid (5-benzylcarbamoyl-2-chloro-phenyl)-amide]",0.048 µM,> 100 µM,–,–,–
"COc1ncc2cc(C(=O)Nc3cc(C(=O)NCc4cccs4)ccc3Cl)c(=O)[nH]c2n1 [Example 57, 2-Methoxy-7-oxo-7,8-dihydro-pyrido[2,3-d]pyrimidine-6-carboxylic acid {2-chloro-5-[(thiophen-2-ylmethyl)-carbamoyl]-phenyl}-amide]",0.096 µM,2.41 µM,–,–,–
"COc1ncc2cc(C(=O)Nc3cc(C(=O)NCc4ccsc4)ccc3Cl)c(=O)[nH]c2n1 [Example 58, 2-Methoxy-7-oxo-7,8-dihydro-pyrido[2,3-d]pyrimidine-6-carboxylic acid {2-chloro-5-[(thiophen-3-ylmethyl)-carbamoyl]-phenyl}-amide]",0.04 µM,1.73 µM,–,–,–
"COc1ncc2cc(C(=O)Nc3cc(C(=O)NC(CN)c4ccccc4)ccc3Cl)c(=O)[nH]c2n1 (stereo not shown) [Example 72, 2-Methoxy-7-oxo-7,8-dihydro-pyrido[2,3-d]pyrimidine-6-carboxylic acid [5-(2-amino-1-phenyl-ethylcarbamoyl)-2-chloro-phenyl]-amide]",–,0.828 µM,0.00935 µM,–,–
"CC(C)(O)CNc1ncc2cc(C(=O)Nc3cc(C(=O)NC(CO)c4ccccc4)ccc3Cl)c(=O)[nH]c2n1 (stereo not shown) [Example 153, N-(2-Chloro-5-(2-hydroxy-1-phenylethylcarbamoyl)phenyl)-2-(2-hydroxy-2-methylpropylamino)-7-oxo-7,8-dihydropyrido[2,3-d]pyrimidine-6-carboxamide]",–,–,0.185 µM,0.0931 µM,–
"CC(C)(O)CNc1ncc2cc(C(=O)Nc3cc(C(=O)NC(CCO)c4ccccc4)ccc3Cl)c(=O)[nH]c2n1 (stereo not shown) [Example 154, N-(2-Chloro-5-(3-hydroxy-1-phenylpropylcarbamoyl)phenyl)-2-(2-hydroxy-2-methylpropylamino)-7-oxo-7,8-dihydropyrido[2,3-d]pyrimidine-6-carboxamide]",–,–,0.078 µM,0.075 µM,–
"CN(C)c1ncc2cc(C(=O)Nc3cc(C(=O)NCc4cccc(Cl)c4)ccc3Cl)c(=O)[nH]c2n1 [Example 155, N-(2-Chloro-5-(3-chlorobenzylcarbamoyl)phenyl)-2-(dimethylamino)-7-oxo-7,8-dihydropyrido[2,3-d]pyrimidine-6-carboxamide]",–,–,0.0923 µM,0.0485 µM,–
"C[C@@H](NC(=O)c1ccc(Cl)c(NC(=O)c2cc3cnc(N4CCOCC4)nc3[nH]c2=O)c1)c1ccccc1 [Example 156, 2-Morpholin-4-yl-7-oxo-7,8-dihydro-pyrido[2,3-d]pyrimidine-6-carboxylic acid [2-chloro-5-((R)-1-phenyl-ethylcarbamoyl)-phenyl]-amide]",–,–,0.586 µM,0.189 µM,–
"C[C@H](NC(=O)c1ccc(Cl)c(NC(=O)c2cc3cnc(N4CCOCC4)nc3[nH]c2=O)c1)c1ccccc1 [Example 157, 2-Morpholin-4-yl-7-oxo-7,8-dihydro-pyrido[2,3-d]pyrimidine-6-carboxylic acid [2-chloro-5-((S)-1-phenyl-ethylcarbamoyl)-phenyl]-amide]",–,–,> 10 µM,> 10 µM,–
"COc1ncc2cc(C(=O)Nc3cc(C(=O)N[C@@H](CCO)c4ccccc4)ccc3Cl)c(=O)[nH]c2n1 [Example 159, (S)—N-(2-Chloro-5-(3-hydroxy-1-phenylpropylcarbamoyl)phenyl)-2-methoxy-7-oxo-7,8-dihydropyrido[2,3-d]pyrimidine-6-carboxamide]",–,–,–,3.88 µM,22%
"C[C@H](NC(=O)c1ccc(Cl)c(NC(=O)c2cc3cnc(N4CCN(C)CC4)nc3[nH]c2=O)c1)c1ccccc1 [Example 173, 2-(4-Methyl-piperazin-1-yl)-7-oxo-7,8-dihydro-pyrido[2,3-d]pyrimidine-6-carboxylic acid [2-chloro-5-((S)-1-phenyl-ethylcarbamoyl)-phenyl]-amide]",–,–,> 10 µM,> 10 µM,–
"CN1CCN(c2ncc3cc(C(=O)Nc4cc(C(=O)NCc5cccc(F)c5)ccc4Cl)c(=O)[nH]c3n2)CC1 [Example 177, 2-(4-Methyl-piperazin-1-yl)-7-oxo-7,8-dihydro-pyrido[2,3-d]pyrimidine-6-carboxylic acid [2-chloro-5-(3-fluoro-benzylcarbamoyl)-phenyl]amide]",–,–,0.176 µM,0.0715 µM,–
"CN1CCN(c2ncc3cc(C(=O)Nc4cc(C(=O)NCc5cc(F)ccc5F)ccc4Cl)c(=O)[nH]c3n2)CC1 [Example 178, 2-(4-Methyl-piperazin-1-yl)-7-oxo-7,8-dihydro-pyrido[2,3-d]pyrimidine-6-carboxylic acid [2-chloro-5-(2,5-difluoro-benzylcarbamoyl)-phenyl]amide]",–,–,0.356 µM,0.0748 µM,–
"CN1CCN(c2ncc3cc(C(=O)Nc4cc(C(=O)N[C@H](CN)Cc5cccc(F)c5)ccc4Cl)c(=O)[nH]c3n2)CC1 [Example 187, 2-(4-Methyl-piperazin-1-yl)-7-oxo-7,8-dihydro-pyrido[2,3-d]pyrimidine-6-carboxylic acid {5-[(S)-1-aminomethyl-2-(3-fluoro-phenyl)-ethylcarbamoyl]-2-chloro-phenyl}-amide]",–,–,0.202 µM,0.13 µM,–
"COc1ncc2cc(C(=O)Nc3cc(C(=O)NC(CN)C4CCCCC4)ccc3Cl)c(=O)[nH]c2n1 (stereo not shown) [Example 192, N-(5-(2-Amino-1-cyclohexylethylcarbamoyl)-2-chlorophenyl)-2-methoxy-7-oxo-7,8-dihydropyrido[2,3-d]pyrimidine-6-carboxamide]",–,–,0.047 µM,0.036 µM,–
"COc1ncc2cc(C(=O)Nc3cc(C(=O)NC(c4ccccc4)C(F)(F)CN)ccc3Cl)c(=O)[nH]c2n1 (stereo not shown) [Example 196, N-(5-(3-amino-2,2-difluoro-1-phenylpropylcarbamoyl)-2-chlorophenyl)-2-methoxy-7-oxo-7,8-dihydropyrido[2,3-d]pyrimidine-6-carboxamide]",–,–,0.339 µM,0.175 µM,–
"COc1ncc2cc(C(=O)Nc3cc(C(=O)NC(CCN)C4CCCC4)ccc3Cl)c(=O)[nH]c2n1 (stereo not shown) [Example 198, 2-Methoxy-7-oxo-7,8-dihydro-pyrido[2,3-d]pyrimidine-6-carboxylic acid [5-(3-amino-1-cyclopentyl-propylcarbamoyl)-2-chloro-phenyl]-amide]",–,–,0.36 µM,0.47 µM,–
"COc1ncc2cc(C(=O)Nc3cc(C(=O)NC(CN)C4CCCC4)ccc3Cl)c(=O)[nH]c2n1 (stereo not shown) [Example 200, 2-Methoxy-7-oxo-7,8-dihydro-pyrido[2,3-d]pyrimidine-6-carboxylic acid [5-(2-amino-1-cyclopentyl-ethylcarbamoyl)-2-chloro-phenyl]-amide]",–,–,0.47 µM,0.54 µM,–
